According to US6642274B1, “Methods and compositions for preventing and treating prostate disorders” (priority 1999, dated 2003):

What was measured:
cancer cell cultures [1] = settings: cited from earlier work
[2] = rapid hydrolysis by serum and tissue esterases into alpha-tocopherol; cited from earlier work
cancer cell cultures [3] = test: Cytostatic or cytotoxic effects on cancer cell cultures; type: cell-based; settings: after hydrolysis of alpha-tocopherol succinate into alpha-tocopherol
Excerpt: (§1) Szarka reviews the strategy of chemoprevention as a possible method of blocking the development of cancers in humans (C F Szarka et al “Chemoprevention of cancer” Curr Probl Cancer 1994 January-February; 18(1):6-79).

[4] = in vivo
Excerpt: as §1

BPH = settings: cited from earlier work
5alpha-reductase = settings: after daily dosing with 5 milligrams; cited from earlier work

factor by which minimal target tissue concentration exceeds the maximum levels possible in oral administration [4] | Compound | concentration necessary to demonstrate cytostatic or cytotoxic effects (cancer cell cultures [1]) | levels available systemically after oral administration [2] | reduction in potency relative to alpha-tocopherol succinate (cancer cell cultures [3]) [fold] | side effects in men (BPH; oral administration) | increase in peak urinary flow rates (BPH; two large clinical studies, finasteride treatment) [mls/second] | reduction in serum dihydrotestosterone levels (5alpha-reductase) [%]
 | Cc1c(C)c2c(c(C)c1OC(=O)CCC(=O)O)CC[C@@](C)(CCC[C@H](C)CCC[C@H](C)CCCC(C)C)O2 [alpha-tocopherol succinate] | 10 µM | undetectable levels |  |  |  | 
7-10 fold | Cc1c(C)c2c(c(C)c1O)CC[C@@](C)(CCC[C@H](C)CCC[C@H](C)CCCC(C)C)O2 [alpha-tocopherol] | 0.5 millimolar |  | 50 |  |  | 
10-20 fold | O=C1O[C@H]([C@@H](O)CO)C(O)=C1O [ascorbic acid] | 1-2 millimolar |  |  |  |  | 
 | CC(C)(C)NC(=O)[C@H]1CC[C@H]2[C@@H]3CC[C@H]4NC(=O)C=C[C@]4(C)[C@H]3CC[C@]12C [finasteride] |  |  |  | erectile dysfunction, decreased volume of ejaculate and loss of libido | ~1.6 | 70
